For 20 molecules, EC50 results are on record in patent US20080045514A1 (Cytovia, Inc., priority 2006, published 2008).

SMILES strings stand for the structures. Counter-ions that a name gives are not always drawn. Like-named read-outs stand apart in the source and are kept apart here.

Holding throughout (format): cell-based
For test [1], the system named is human Burkitt's lymphoma cell line Namalwa. In words: Caspase cascade activation (EC50), Namalwa. As to conditions: Homo sapiens, Burkitts lymphoma cell, Namalwa cells. The method, then: (§1) Human breast cancer cell lines T-47D, human hepatocellular carcinoma cell line SNU398, human colon carcinoma cell line HCT116, human cancer cell line H1299, human Burkitt's lymphoma cell line Namalwa, human lymphoma cell line Raji, and human B cell lymphoblastoid cell line Ramos were grown according to media component mixtures designated by American Type Culture Collection+10% FCS (Invitrogen Corporation), in a 5% CO2-95% humidity incubator at 37° C. T-47D and H1299 cells were maintained at a cell density between 50 and 80% confluency at a cell density of 0.1 to 0.6×10^6 cells/mL. Cells were harvested at 600×g and resuspended at 0.65×10^6 cells/mL into appropriate media+10% FCS. An aliquot of 22.5 μL of cells was added to a well of a 384-well microtiter plate containing 2.5 μL of a 10% DMSO in RPMI-1640 media solution containing 0.16 to 100 μM of 3-(2-chlorophenyl)-6-(3,4-methylenedioxyphenyl)-7H-[1,2,4]triazolo[3,4-b][1,3,4]thiadiazine or other test compound (0.016 to 10 μM final). An aliquot of 22.5 μL of cells was added to a well of a 384-well microtiter plate containing 2.5 μL of a 10% DMSO in RPMI-1640 media solution without test compound as the control sample. The samples were mixed by agitation and then incubated at 37° C. for 48 h in a 5% CO2-95% humidity incubator. After incubation, the samples were removed from the incubator and 25 μL of a solution containing 14 μM of N—(Ac-DEVD)-N′-ethoxycarbonyl-R110 (SEQ ID No.:1) fluorogenic substrate (Cytovia, Inc.; WO99/18856), 20% sucrose (Sigma), 20 mM DTT (Sigma), 200 mM NaCl (Sigma), 40 mM Na PIPES buffer pH 7.2 (Sigma), and 500 μg/mL lysolecithin (Calbiochem) was added. The samples were mixed by agitation and incubated at room temperature. Using a fluorescent plate reader (Model SPECTRAfluor Plus, Tecan), an initial reading (T=0) was made approximately 1-2 min after addition of the substrate solution, employing excitation at 485 nm and emission at 530 nm, to determine the background fluorescence of the control sample. After the 3 h incubation, the samples were read for fluorescence as above (T=3 h). Calculation: The Relative Fluorescence Unit values (RFU) were used to calculate the sample readings as follows: RFU(T=3H)−Control RFU(T=0)=Net RFU(T=3h) The activity of caspase cascade activation was determined by the ratio of the net RFU value for 3-(2-chlorophenyl)-6-(3,4-methylenedioxyphenyl)-7H-[1,2,4]triazolo[3,4-b][1,3,4]thiadiazine (Example P) or other test compound to that of control samples. The EC50 (nM) was determined by a sigmoidal dose-response calculation (Prism 3.0, GraphPad Software Inc.).

In test [2] the test system is human lymphoma cell line Raji. In words: Caspase cascade activation (EC50), Raji. As to conditions: Homo sapiens, RAJI cells, read-out: caspase potency (EC50) RAJI. The procedure:
as §1

The test system of test [3] is human B cell lymphoblastoid cell line Ramos. In words: Caspase cascade activation (EC50), Ramos. To be noted: Homo sapiens, RAMOS cells, read-out: caspase potency (EC50) RAMOS. The procedure: as §1
Test [4] has as its system human breast cancer cell line T-47D. The test is described as follows: Caspase cascade activation (EC50), T-47D. To be noted: Homo sapiens, T47D cells. The method, then:
as §1

In test [5] the test system is human hepatocellular carcinoma cell line SNU398. In words: Caspase cascade activation (EC50), SNU398. To be noted: Homo sapiens, SNU-398, SNU398 cells. The method, then: as §1
In test [6] the test system is human colon carcinoma cell line HCT116. The test is described as follows: Caspase cascade activation (EC50), HCT116. To be noted: Homo sapiens, HCT-116, HCT116 cells. The method, then:
as §1

The mark [7] stands for this setting: caspase cascade activation, read-out: caspase potency (EC50) Namalwa.
[8] abbreviates: caspase cascade activation, read-out: caspase potency (EC50) T47D.
Setting [9] is: caspase cascade activation, read-out: caspase potency (EC50) SNU398.
Setting [10] is: caspase cascade activation, read-out: caspase potency (EC50) HCT116.
Setting [11] is: read-out: Caspase potency (EC50) T47D.
Setting [12] is: read-out: Caspase potency (EC50) SNU398.
Where [13] appears, read: read-out: Caspase potency (EC50) HCT116.
Where [14] appears, read: read-out: Caspase potency (EC50) Namalwa.

For `COc1ccc(-c2nnc3n2N=C(c2ccc4[nH]c(=O)oc4c2)CS3)c(OC)c1` [Example 33, 6-(2,3-Dihydro-2-oxobenzo[d]oxazol-6-yl)-3-(2,4-dimethoxyphenyl)-7H-[1,2,4]triazolo[3,4-b][1,3,4]thiadiazine], the EC50 in test [1] (setting [7]) is 2.73 µM; in test [2] it was 2.41 µM; in test [3], 2.68 µM.
The matching figures for `Cc1ccc(C2=Nn3c(nnc3-c3ccccc3Cl)SC2)cc1` [Example 11, 3-(2-Chlorophenyl)-6-(4-methylphenyl)-7H-[1,2,4]triazolo[3,4-b][1,3,4]thiadiazine hydrochloride]: 0.071 µM, 0.157 µM and 0.072 µM.
For `COc1ccc(-c2nnc3n2N=C(c2ccc4c(c2)OCO4)CS3)cc1OC` [Example O1, 3-(3,4-Dimethoxyphenyl)-6-(3,4-methylenedioxyphenyl)-7H-[1,2,4]triazolo[3,4-b][1,3,4]thiadiazine], the EC50 was 0.542 µM in test [4] (setting [8]); 0.501 µM in test [5] (setting [9]); over 10 µM in test [6] (setting [10]); 0.54 µM in test [2]; 0.514 µM in test [3].
The matching figures for `c1ccc(-c2nnc3n2N=C(c2ccc4c(c2)OCO4)CS3)cc1` [Example P1, 3-Phenyl-6-(3,4-methylenedioxyphenyl)-7H-[1,2,4]triazolo[3,4-b][1,3,4]thiadiazine]: 0.669 µM, 2.64 µM, over 10 µM, over 1 µM and 0.628 µM.
In the case of `COc1ccccc1-c1nnc2n1N=C(c1ccc([N+](=O)[O-])cc1)CS2` [Example X2], the concentration giving a half-maximal response (EC50) in test [1] (setting [7]) amounted to 2.58 µM; in test [2], 4.86 µM; in test [3], 2.58 µM.
For the molecule `COc1ccc(-c2nnc3n2N=C(c2ccc(N)cc2)CS3)cc1OC` [Example 29, 6-(4-Aminophenyl)-3-(3,4-dimethoxyphenyl)-7H-[1,2,4]triazolo[3,4-b][1,3,4]thiadiazine], the EC50 in test [4] (setting [8]) was found to be 4.72 µM; in test [5] (setting [9]), 2.54 µM; in test [6] (setting [10]) it was 5.28 µM; in test [3], 0.545 µM.
In the case of `COc1ccc(-c2nnc3n2N=C(c2ccc(NC(C)=O)cc2)CS3)cc1OC` [Example 32, 6-(4-Acetamidophenyl)-3-(3,4-dimethoxyphenyl)-7H-[1,2,4]triazolo[3,4-b][1,3,4]thiadiazine], the EC50 in test [1] (setting [7]) is over 10 µM; in test [2], over 10 µM; in test [3] it was 4.86 µM.
Regarding `COc1ccccc1-c1nnc2n1N=C(c1ccc(OC(F)(F)F)cc1)CS2` [Example 50, 3-(2-Methoxyphenyl)-6-(4-(trifluoromethoxy)phenyl)-7H-[1,2,4]triazolo[3,4-b][1,3,4]thiadiazine], the EC50 was 0.549 µM in test [4] (setting [8]), 0.53 µM in test [5] (setting [9]), 0.564 µM in test [6] (setting [10]) and 0.5 µM in test [1] (setting [7]).
With `COc1ccccc1-c1nnc2n1N=C(c1ccn(C)c1)CS2` [Example 86, 3-(2-Methoxyphenyl)-6-(1-methyl-1H-pyrrol-3-yl)-7H-[1,2,4]triazolo[3,4-b][1,3,4]thiadiazine], the EC50 in test [4] (setting [8]) was determined as 0.525 µM; in test [5] (setting [9]) it was 0.38 µM; in test [6] (setting [10]) it was 1.32 µM; in test [1] (setting [7]), 0.32 µM.
The matching figures for `COc1ccccc1-c1nnc2n1N=C(c1ccc(C)c([N+](=O)[O-])c1)CS2` [Example 54, 3-(2-Methoxyphenyl)-6-(4-methyl-3-nitrophenyl)-7H-[1,2,4]triazolo[3,4-b][1,3,4]thiadiazine]: 0.554 µM, 0.306 µM, 0.441 µM and 0.29 µM.
In the case of `COc1ccccc1-c1nnc2n1NC(c1ccc(C)cc1)CS2` (stereo not shown) [Example 88, 5,6-Dihydro-3-(2-methoxyphenyl)-6-(4-methylphenyl)-7H-[1,2,4]triazolo[3,4-b][1,3,4]thiadiazine], the EC50 in test [4] (setting [8]) was 5.33 µM; in test [5] (setting [9]), 2.53 µM; in test [6] (setting [10]), 2.8 µM; in test [1] (setting [7]), 1.53 µM.
`COc1cc(Cl)ccc1-c1nnc2n1N=C(c1ccc(C)cc1)CS2` [Example 97, 3-(4-Chloro-2-methoxyphenyl)-6-(4-methylphenyl)-7H-[1,2,4]triazolo[3,4-b][1,3,4]thiadiazine]: the EC50 in test [4] (setting [11]) was found to be 0.034 µM; in test [5] (setting [12]), 0.006 µM; in test [6] (setting [13]) it was 0.008 µM; in test [1] (setting [14]) it was 0.004 µM.
On to `Cc1ccc(C2=Nn3c(nnc3-c3cc([N+](=O)[O-])cn3C)SC2)cc1` [Example 95, 3-(1-Methyl-4-nitro-1H-pyrrol-2-yl)-6-(4-methylphenyl)-7H-[1,2,4]triazolo[3,4-b][1,3,4]thiadiazine], for which the EC50 in test [4] (setting [11]) stood at 2.7 µM; in test [5] (setting [12]), 0.478 µM; in test [6] (setting [13]), 0.693 µM; in test [1] (setting [14]), 0.328 µM.
On to `COc1ccc(C2=Nn3c(nnc3-c3cc(Cl)c(OC)c(OC)c3)SC2)cc1` [Example 5, 3-(3-Chloro-4,5-dimethoxyphenyl)-6-(4-methoxyphenyl)-7H-[1,2,4]triazolo[3,4-b][1,3,4]thiadiazine], for which the EC50 came to 0.071 µM in test [1] (setting [7]), 0.133 µM in test [2] and 0.078 µM in test [3].
As for `COc1ccccc1-c1nnc2n1N=C(c1ccc(C)cc1C)CS2` [Example 39, 3-(2-Methoxyphenyl)-6-(2,4-dimethylphenyl)-7H-[1,2,4]triazolo[3,4-b][1,3,4]thiadiazine], the EC50 in test [4] (setting [8]) stood at 2.7 µM; in test [5] (setting [9]), 0.943 µM; in test [6] (setting [10]) it was 2.58 µM; in test [1] (setting [7]), 1.28 µM.
As to `COc1ccccc1-c1nnc2n1N=C(c1ccc(OCCN(C)C)cc1)CS2` [Example 9, 3-(2-Methoxyphenyl)-6-(4-(2-dimethylaminoethoxy)phenyl)-7H-[1,2,4]triazolo[3,4-b][1,3,4]thiadiazine], the figures for the EC50 in test [1] (setting [7]), in test [2] and in test [3] were 2.56 µM, 3.37 µM and 2.65 µM, respectively.
Regarding `COc1ccccc1-c1nnc2n1N=C(c1ccc(NC(C)=O)c([N+](=O)[O-])c1)CS2` [Example 56, 6-(4-Acetamido-3-nitrophenyl)-3-(2-methoxyphenyl)-7H-[1,2,4]triazolo[3,4-b][1,3,4]thiadiazine], the EC50 was 0.476 µM in test [4] (setting [8]), 0.328 µM in test [5] (setting [9]), 0.506 µM in test [6] (setting [10]) and 0.27 µM in test [1] (setting [7]).
In the case of `COc1cc(-c2nnc3n2N=C(c2ccc(N(C)C)cc2)CS3)cc(OC)c1OC` [Example 67, 6-(4-Dimethylaminophenyl)-3-(3,4,5-trimethoxyphenyl)-7H-[1,2,4]triazolo[3,4-b][1,3,4]thiadiazine], the EC50 was found to be 0.175 µM in test [4] (setting [8]), 0.043 µM in test [5] (setting [9]), 0.058 µM in test [6] (setting [10]) and 0.061 µM in test [1] (setting [7]).
In the case of `Cc1ccc(C2=Nn3c(nnc3-c3cc(N)cn3C)SC2)cc1` [Example 99, 3-(1-Methyl-4-amino-1H-pyrrol-2-yl)-6-(4-methylphenyl)-7H-[1,2,4]triazolo[3,4-b][1,3,4]thiadiazine], the concentration giving a half-maximal response (EC50) in test [4] (setting [11]) turned out to be 5.42 µM; in test [5] (setting [12]) it was 1.26 µM; in test [6] (setting [13]) it was 1.78 µM; in test [1] (setting [14]) it was 1.18 µM.
`COc1ccc(C2=Nn3c(nnc3-c3cccc(Cl)c3Cl)SC2)cc1` [Example M3]: the EC50 in test [4] (setting [8]) amounted to 0.268 µM; in test [5] (setting [9]) it was 0.082 µM; in test [6] (setting [10]) it was 0.124 µM; in test [1] (setting [7]) it was 0.068 µM.

Broadly, the EC50 is the concentration that produces a half-maximal response.
